Data on 22 molecules can be found in patent US9981916B2 (Genentech, Inc., priority 2013, dated 2018).

As usually defined, the IC50 is the concentration that gives 50% inhibition.

The assay addresses T1, RORc ligand binding domain (Homo sapiens, UniProt P51449).
T1 construct: host or cells: E. coli
T1 sequence (P51449 269-508 limits assumed): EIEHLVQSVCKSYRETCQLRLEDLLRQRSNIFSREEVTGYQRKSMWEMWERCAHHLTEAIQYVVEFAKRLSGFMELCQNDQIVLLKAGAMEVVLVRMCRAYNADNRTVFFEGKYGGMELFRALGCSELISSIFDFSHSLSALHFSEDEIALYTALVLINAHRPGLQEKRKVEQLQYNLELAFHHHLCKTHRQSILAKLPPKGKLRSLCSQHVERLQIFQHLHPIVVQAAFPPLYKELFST
The experiment in a line: In vitro RORc ligand binding assay (25-[3H]hydroxycholesterol displacement, filter binding). The following applies: 6 nM 25-[3H]hydroxycholesterol, 0.6 ug/mL RORc receptor, 3 h at 25° C. As for the experimental part:
Example 17: In Vitro RORc Ligand Binding Assay
This assay was used to determine a compound's potency in inhibiting activity of RORc by determining, Kiapp, IC50, or percent inhibition values.
On day of the assay, 100 uL of 0.05% CHAPS (in deionized H2O) was added to all wells of the GFB Unifilter plate and allowed soak for 1 h. A wash buffer of 50 mM HEPES (pH 7.4), 150 mM NaCl, and 5 mM MgCl2 was prepared to wash the filter plate. To prepare an assay buffer, BSA was added to the wash buffer to reach 0.01% and DTT was added to reach 1 mM.
For IC50 mode, 10 mM compound stocks were serially diluted in DMSO with DMSO to give 20× required final concentration in DMSO (15 uL compound+30 uL DMSO). The 20× compound stocks were diluted in DMSO with Assay Buffer 4-fold to reach 5× the final test concentration in 25% DMSO (10 uL compound+30 uL Assay Buffer). Solutions were mixed by aspiration several times with a pipette set on 50 uL volume. For the assay, 10 uL of 5× compound stock solutions in 25% DMSO were added to the assay plate in duplicate.
For two point screening, 10 mM stock compound solutions were diluted in DMSO to obtain 200 uM (20× the high test concentration) and then diluted 10-fold further to reach 20 uM (20× the low test concentration). The 20× stocks were diluted 4-fold with Assay Buffer (10 uL compound+30 uL Assay Buffer) to reach 5× the test concentrations (50 uM and 5 uM) and 10 uL were added to two assay plates for the duplicate wells. With each concentration tested on 2 plates, each set of 80 compounds used 4 assay plates (1 uM and 10 uM, with n=2).
25-hydroxycholesterol (1 uM) was used to determine the level of NSB signal is prepared in DMSO as for compounds above, then diluted in Assay Buffer to give a final concentration of 5 uM. For 25-hydroxycholesterol in 25% DMSO/75% Assay Buffer; 10 uL per well was used for NSB samples. Wells for Total Binding and No Receptor sample determination contained 10 uL of 25% DMSO/75% Assay Buffer per well.
25-[^3H]hydroxycholesterol was diluted in Assay Buffer to obtain 15 nM and vortex to mix. Add 20 uL to all wells to reach 6 nM final concentration in the assay.
Stock receptor solution was diluted in assay buffer to obtain 1.5 ug/mL in Assay Buffer. 20 uL was added to all wells. For No Receptor samples, 20 uL Assay Buffer was substituted for receptor solution.
Assay plates were 96-well polypropylene V-bottom plates. 10 uL of 5× compound in 25% DMSO/75% Assay Buffer was added to Test wells. 10 uL of 25% DMSO/75% Assay Buffer was added to Total Binding or No Receptor wells. 10 uL of 5 uM 25-hydroxycholesterol in 25% DMSO/75% Assay Buffer was added to NSB wells. 20 uL of 15 nM 25-[^3H]hydroxycholesterol prepared in Assay Buffer was added to all wells. 20 uL of 1.5 ug/mL RORc receptor was added to wells (or […] Assay Buffer to No R wells). Following addition to the wells, the plates were incubated 3 h at 25° C.
Using a Packard Filtermate Harvester, the filter plate were washed 4 times following transfer of the incubated samples. Plates were dry-filtered completely (2 h at 50° C. or overnight at room temperature). 50 uL Microscint 0 was added to all wells and read on Topcount protocol Inverted.
Final concentrations were as follows: 50 mM HEPES buffer (pH 7.4); 150 mM NaCl; 1 mM DTT; 5 mM MgCl2; 0.01% BSA; 5% DMSO; 0.6 ug/mL RORc receptor; 6 nM 25-[^3H]hydroxycholesterol. For NSB wells, 1 uM 25-hydroxycholesterol was also present.
Regarding `CC1(C)[C@H]2CC[C@]1(Cc1ncon1)c1nnc(-c3c(F)cccc3F)cc12` [Example 57, (5R,8R)-3-(2,6-difluorophenyl)-9,9-dimethyl-8-(1,2,4-oxadiazol-3-ylmethyl)-5,6,7,8-tetrahydro-5,8-methanocinnoline], the IC50 is 85 nM.
With `CC1(C)[C@H]2CC[C@]1(Cc1noc(O)n1)c1nnc(-c3c(F)cccc3F)cc12` [Example 58, 3-{[(5R,8R)-3-(2,6-difluorophenyl)-9,9-dimethyl-6,7-dihydro-5,8-methanocinnolin-8(5H)-yl]methyl}-1,2,4-oxadiazol-5-ol] the figure was 1050 nM; with `Cc1nc(C[C@@]23CC[C@@H](c4cc(-c5c(F)cccc5F)nnc42)C3(C)C)no1` [Example 59, (5R,8R)-3-(2,6-difluorophenyl)-9,9-dimethyl-8-[(5-methyl-1,2,4-oxadiazol-3-yl)methyl]-5,6,7,8-tetrahydro-5,8-methanocinnoline], 106 nM; with `Cc1noc([C@]23CC[C@H](c4cc(-c5c(F)cccc5F)nnc42)C3(C)C)n1` [Example 60, (5S,8S)-3-(2,6-difluorophenyl)-9,9-dimethyl-8-(3-methyl-1,2,4-oxadiazol-5-yl)-5,6,7,8-tetrahydro-5,8-methanocinnoline], 415 nM.
As for `CC1(C)[C@H]2CC[C@]1(Cc1noc(CO)n1)c1nnc(-c3c(F)cccc3F)cc12` [Example 61, (3-{[(5R,8R)-3-(2,6-difluorophenyl)-9,9-dimethyl-6,7-dihydro-5,8-methanocinnolin-8(5H)-yl]methyl}-1,2,4-oxadiazol-5-yl)methanol], the IC50 was determined as 323 nM.
`COCc1nc(C[C@@]23CC[C@@H](c4cc(-c5c(F)cccc5F)nnc42)C3(C)C)no1` [Example 62, (5R,8R)-3-(2,6-difluorophenyl)-8-{[5-(methoxymethyl)-1,2,4-oxadiazol-3-yl]methyl}-9,9-dimethyl-5,6,7,8-tetrahydro-5,8-methanocinnoline]: the IC50 is 129 nM.
For the molecule `COC(=O)c1ccc(COC[C@]23CC[C@H](c4cc(-c5ccccc5F)nnc42)C3(C)C)cc1` [Example 63, methyl 4-({[(5S,8S)-3-(2-fluorophenyl)-9,9-dimethyl-6,7-dihydro-5,8-methanocinnolin-8(5H)-yl]methoxy}methyl) benzoate], the IC50 amounted to 136 nM.
Turning to `Cc1noc([C@@]23CC[C@@H](c4cc(-c5c(F)cccc5F)nnc42)C3(C)C)n1` [Example 64, (5R,8R)-3-(2,6-difluorophenyl)-9,9-dimethyl-8-(3-methyl-1,2,4-oxadiazol-5-yl)-5,6,7,8-tetrahydro-5,8-methanocinnoline], the IC50 was determined as 67 nM.
Then `Cc1nnc(C[C@@]23CC[C@@H](c4cc(-c5c(F)cccc5F)nnc42)C3(C)C)o1` [Example 65, (5R,8R)-3-(2,6-difluorophenyl)-9,9-dimethyl-8-[(5-methyl-1,3,4-oxadiazol-2-yl)methyl]-5,6,7,8-tetrahydro-5,8-methanocinnoline], with 131 nM; and `CN(C)Cc1nc(C[C@@]23CC[C@@H](c4cc(-c5c(F)cccc5F)nnc42)C3(C)C)no1` [Example 66, 1-(3-{[(5R,8R)-3-(2,6-difluorophenyl)-9,9-dimethyl-6,7-dihydro-5,8-methanocinnolin-8(5H)-yl]methyl}-1,2,4-oxadiazol-5-yl)-N,N-dimethylmethanamine], with 298 nM; and `Cc1nnc([C@@]23CC[C@@H](c4cc(-c5c(F)cccc5F)nnc42)C3(C)C)o1` [Example 67, (5R,8R)-3-(2,6-difluorophenyl)-9,9-dimethyl-8-(5-methyl-1,3,4-oxadiazol-2-yl)-5,6,7,8-tetrahydro-5,8-methanocinnoline], with 31 nM.
The molecule `CC1(C)[C@H]2CC[C@]1(c1nnc(CO)o1)c1nnc(-c3c(F)cccc3F)cc12` [Example 68, {5-[(5R,8R)-3-(2,6-difluorophenyl)-9,9-dimethyl-6,7-dihydro-5,8-methanocinnolin-8(5H)-yl]-1,3,4-oxadiazol-2-yl}methanol] displayed an IC50 of 116 nM.
Turning to `CC1(C)[C@@H]2CC[C@@]1(C(=O)N1CCCC1)c1nnc(-c3c(F)cccc3F)cc12` [Example 69, [(5S,8S)-3-(2,6-difluorophenyl)-9,9-dimethyl-6,7-dihydro-5,8-methanocinnolin-8(5H)-yl](pyrrolidin-1-yl)methanone], the IC50 came out at 23 nM.
Molecule `CN(C(=O)[C@]12CC[C@H](c3cc(-c4c(F)cccc4F)nnc31)C2(C)C)C1CCC1` [Example 70, (5S,8S)-N-cyclobutyl-3-(2,6-difluorophenyl)-N,9,9-trimethyl-6,7-dihydro-5,8-methanocinnoline-8(5H)-carboxamide] gave an IC50 of 215 nM.
Then `CC1(C)[C@@H]2CC[C@@]1(COCc1ccc(C(=O)O)cc1)c1nnc(-c3ccccc3F)cc12` [Example 71, 4-({[(5S,8S)-3-(2-fluorophenyl)-9,9-dimethyl-6,7-dihydro-5,8-methanocinnolin-8(5H)-yl]methoxy}methyl) benzoic acid], with 284 nM.
With `CC1(C)[C@@H]2CC[C@@]1(COCc1ccc(C(N)=O)cc1)c1nnc(-c3ccccc3F)cc12` [Example 72, 4-({[(5S,8S)-3-(2-fluorophenyl)-9,9-dimethyl-6,7-dihydro-5,8-methanocinnolin-8(5H)-yl]methoxy}methyl) benzamide] the figure was 158 nM.
The molecule `CN(C)C(=O)[C@]12CC[C@H](c3cc(-c4c(F)cccc4F)nnc31)C2(C)C` [Example 73, (5S,8S)-3-(2,6-difluorophenyl)-N,N,9,9-tetramethyl-6,7-dihydro-5,8-methanocinnoline-8(5H)-carboxamide] registered an IC50 of 29 nM.
With `CC1(C)CN(C(=O)[C@]23CC[C@H](c4cc(-c5c(F)cccc5F)nnc42)C3(C)C)C1` [Example 74, [(5S,8S)-3-(2,6-difluorophenyl)-9,9-dimethyl-6,7-dihydro-5,8-methanocinnolin-8(5H)-yl](3,3-dimethylazetidin-1-yl)methanone] the figure was 693 nM.
Then `Cc1noc(C[C@@]23CC[C@@H](c4cc(-c5c(F)cccc5F)nnc42)C3(C)C)n1` [Example 75, (5R,8R)-3-(2,6-difluorophenyl)-9,9-dimethyl-8-[(3-methyl-1,2,4-oxadiazol-5-yl)methyl]-5,6,7,8-tetrahydro-5,8-methanocinnoline], with 89 nM.
Molecule `CC1(C)[C@H]2CC[C@]1(C(N)=O)c1nnc(-c3c(F)cccc3F)cc12` [Example 77, (5R,8R)-3-(2,6-difluorophenyl)-9,9-dimethyl-6,7-dihydro-5,8-methanocinnoline-8(5H)-carboxamide] had a 50% inhibitory concentration (IC50) of 1460 nM.
Then `CC1(C)[C@H]2CC[C@]1(C#N)c1nnc(-c3c(F)cccc3F)cc12` [Example 78, (5R,8R)-3-(2,6-difluorophenyl)-9,9-dimethyl-6,7-dihydro-5,8-methanocinnoline-8(5H)-carbonitrile], with 925 nM; and `CN(C)C1CN(C(=O)[C@]23CC[C@H](c4cc(-c5c(F)cccc5F)nnc42)C3(C)C)C1` [Example 79, [(5S,8S)-3-(2,6-difluorophenyl)-9,9-dimethyl-6,7-dihydro-5,8-methanocinnolin-8(5H)-yl][3-(dimethylamino)azetidin-1-yl]methanone], with 1120 nM.
